Test results: US9066912B2, “Drug-enhanced adhesion prevention” (Ethicon, Inc., priority 2003, dated 2015)
“And” between values parts separate entries of the source, which are not always exact repeats. Identical values can stand only once. “Also recorded” adds a separate entry of the source.

How the values were obtained:
[1] = Necropsy observations in the rabbit sidewall adhesion studies; format: in vivo; design: key to mild inflammation with granulomas (mark at adhesion tenacity): *: did have mild inflammation with the presence of granulomas; conditions: for mild inflammation with granulomas (mark at adhesion tenacity): individual animals, also seen in vehicle treated animals
Protocol: (§1) In the peritoneal sidewall model, rabbits were pre-anesthetized with 1.2 mg/kg acetylpromazine and anesthetized with a mixture of 55 mg/kg ketamine hydrochloride and 5 mg/kg xylazine intramuscularly. Following preparation for sterile surgery, a midline laparotomy was performed. A 3 cm×5 cm area of peritoneum and transversus abdominis muscle was removed on the right lateral abdominal wall. The cecum was exteriorized and digital pressure was exerted to create subserosal hemorrhages (trauma and loss of blood flow) over all cecal surfaces. The cecum was then returned to its normal anatomic position. Tranilast contained in a delivery vehicle as described below was placed in an Alzet® miniosmotic pump (Alza Corporation, Palo Alto, Calif.) to allow continuous release of the molecule through the postsurgical interval. The Alzet miniosmotic pump was placed in the subcutaneous space and a delivery tube connected the pump with the site of injury at the sidewall. Only the delivery vehicle was placed in the pump of control rabbits. The abdominal wall and skin were closed in a standardized manner.
The animals whose adhesion tenacities are marked by (*) did have mild inflammation with the presence of granulomas. The variability in the results may be due to a localized inflammation in […]. As the response was present in the vehicle treated animals, the inflammatory response may be due to prolonged administration of this vehicle. Therefore, the efficacy results might have been underestimated in light of the possible presence of a prolonged inflammatory response.

[2] = tested on: adhesion formation after peritoneal surgery (sidewall injury); experiment: Rabbit peritoneal sidewall adhesion model; format: in vivo; design: key to Adhesion Tenacity: 0: No adhesions; 1: mild, easily dissectible adhesions; 2: moderate adhesions; non-dissectible, does not tear organ; 3: dense adhesions; non-dissectible, tears when removed; conditions: for mean adhesion area percentage: placebo control 100±0; for Adhesion Area Percentage / Adhesion Tenacity: individual animals; for efficacy in reducing post-operative adhesions: summary of the examples
Protocol: Multiple studies to confirm the efficacy of Tranilast in the reduction or inhibition of adhesion formation after peritoneal surgery were performed using a sidewall adhesion model.
as §1
After 21 days, the rabbits were sacrificed and the percentage of the area of the sidewall injury that was involved in adhesions was determined. In addition, the tenacity of the adhesion formed was scored using a system as follows:
With the sidewall model, an initial score to represent the overall extent of adhesions is given (0 to 3).
The percentage of a surface of the sidewall involved in adhesions to various organs are given in the tables below to quantify the overall adhesion score. A reduction in the area and the tenacity of the adhesions would be considered beneficial and efficacious.
The efficacy of Tranilast in inhibiting adhesion formation was evaluated using a single pump, filled with one of three dosage levels of mg of Tranilast per ml of delivery vehicle (0.625 mg/ml, 6.25 mg/ml or 62.5 mg/ml), or placebo control (70% Polyethylene glycol 400, 20% Tween 80, 10% N,N-dimethylacetamide (DMAC)). The drug was placed in an Alzet miniosmotic pump and delivered over 7 days at a rate of 10 microliter/hr. The animals were sacrificed after 21 days.
Following the procedure described in Example 1, Tranilast, at one of three dosage levels (0.625, 6.25 or 62.5 mg Tranilast/ml vehicle), and a placebo control (70% Polyethylene glycol 400, 20% Tween 80, 10% N,N-dimethylacetamide (DMAC)) was delivered over 7 days at a rate of 10 microliter/hr.
After 7 days, animals received anesthesia and a small incision was made in the skin after preparation for aseptic surgery. The pump was then replaced with a new pump and drug or placebo was delivered over a second period of 7 days at a rate of 10 microliter/hr.
After 7 more days, some of the animals received anesthesia and a second small incision was made in the skin after preparation for aseptic surgery. Again, the pump was replaced with another new pump and drug or placebo was delivered over a third period of 7 days at a rate of 10 microliter/hr.
All animals were sacrificed after 21 days.
Groups of animals received either oral dosing, or local delivery of Tranilast, or placebo control. In the animals that received local delivery, a single pump, filled with placebo (70% Polyethylene glycol 400, 20% Tween 80, 10% N,N-dimethylacetamide (DMAC)), or Tranilast (6.25 mg/ml), at 10 microliter/hour over 7 days starting with the day of surgery, was placed in the subcutaneous space. Certain animals received oral dosing (approximately 60 mg/kg). Oral dosing was either pre-operatively (once a day for the 5 days prior to surgery, with the last dose given 2 hours prior to surgery) or, in one group, pre- and post-operatively (from day 2 through day 21 post-surgery). For further clarification, the treatment groups are shown below.

[3] = tested on: TGF-β secretion, collagen synthesis, or cellular proliferation; conditions: any of the cellular assays tested to date, e.g. TGF-β secretion; cited from earlier work
[4] = Example 2, 2 and 3 week local dosing
[5] = Example 3, oral and/or local dosing
[6] = Example 1, 0.625 mg/ml local via pump, 10 microliter/hr over 7 days, sacrifice after 21 days
[7] = Example 1, 6.25 mg/ml local via pump, 10 microliter/hr over 7 days, sacrifice after 21 days
[8] = Example 1, 62.5 mg/ml local via pump, 10 microliter/hr over 7 days, sacrifice after 21 days
[9] = Example 3, oral 60 mg/kg 5 days pre-operatively and 6.25 mg/ml topically (pump, 7 days), 60 mg/kg
[10] = Example 3, oral 60 mg/kg, 5 days pre-operatively and 21 days post-operatively, no pump

COc1ccc(C=CC(=O)Nc2ccccc2C(=O)O)cc1OC [Tranilast, N-(3,4-dimethoxycinnamoyl) anthranilic acid]
clinical signs at necropsy ([1]; Example 1, 1 week local dosing): no clinical signs
inflammation or granulomas at the site of administration ([1]; Example 1, 1 week local dosing): no inflammation or granulomas were observed
clinical signs at necropsy [1, 4]: no clinical signs
inflammation or granulomas at the site of administration [1, 4]: no inflammation or granulomas were observed grossly at the site of administration in the majority of animals
mild inflammation with granulomas (mark at adhesion tenacity) ([1]; Example 2, 0.625 mg/ml local for 2 weeks): *
mild inflammation with granulomas (mark at adhesion tenacity) ([1]; Example 2, 6.25 mg/ml local for 2 weeks): *
mild inflammation with granulomas (mark at adhesion tenacity) ([1]; Example 2, 6.25 mg/ml local for 3 weeks): *
mild inflammation with granulomas (mark at adhesion tenacity) ([1]; Example 2, 62.5 mg/ml local for 2 weeks): *
mild inflammation with granulomas (mark at adhesion tenacity) ([1]; Example 2, 62.5 mg/ml local for 3 weeks): *
clinical signs at necropsy [1, 5]: no clinical signs
inflammation or granulomas at the site of administration [1, 5]: no inflammation or granulomas were observed
mean adhesion area percentage ([2]; Example 1, 0.625 mg/ml local, 1 week dosing, p=0.078): 82.9±8.1%
mean adhesion area percentage ([2]; Example 1, 6.25 mg/ml local, 1 week dosing, p<0.001): 67.1±7.1%
mean adhesion area percentage ([2]; Example 1, 62.5 mg/ml local, 1 week dosing, p=0.065): 78.6±9.6%
tenacity of the adhesions formed (analysis of variance on the ranks) ([2]; Example 1, 1 week local dosing, all doses): significant reductions in the tenacity of the adhesions
area of adhesion formation relative to the control ([2]; Example 1, 1 week local dosing, all doses (0.625, 6.25, 62.5 mg/ml)): reduced the area of adhesion formation
Adhesion Area Percentage [2, 6]: 100% (4×) and 60% (3×)
Adhesion Tenacity [2, 6]: 2 (3×) and 1 (3×) and 3
Adhesion Area Percentage [2, 7]: 70% (2×) and 100% and 80% and 50% (3×)
Adhesion Tenacity [2, 7]: 1 (5×) and 2 (2×)
Adhesion Area Percentage [2, 8]: 100% (3×) and 70% (2×) and 30% and 80%
Adhesion Tenacity [2, 8]: 2 (3×) and 1 (3×) and 3
mean adhesion area percentage ([2]; Example 2, 0.625 mg/ml local, 2 weeks): 75.1±14.5%
mean adhesion area percentage ([2]; Example 2, 0.625 mg/ml local, 3 weeks): 48.6±8.8%
mean adhesion area percentage ([2]; Example 2, 6.25 mg/ml local, 2 weeks): 78.8±12.0%
mean adhesion area percentage ([2]; Example 2, 6.25 mg/ml local, 3 weeks): 77.1±12.1%
mean adhesion area percentage ([2]; Example 2, 62.5 mg/ml local, 2 weeks): 72.5±9.8%
mean adhesion area percentage ([2]; Example 2, 62.5 mg/ml local, 3 weeks): 64.3±10.9%
tenacity of the adhesions formed (analysis of variance on the ranks) ([2]; Example 2, 2 and 3 week local dosing, all doses): significant reductions in the tenacity of the adhesions
adhesion formation relative to placebo control ([2]; Example 2, 2 and 3 week local dosing, significant at the high dose at two weeks and at all doses at 3 weeks): reductions in adhesion formation at all doses of drug and at both time points
Adhesion Area Percentage ([2]; Example 2, 0.625 mg/ml local via pump for 2 weeks (pump replaced at day 7), sacrifice after 21 days): 50% and 100% (4×) and 80% and 0%
Adhesion Tenacity ([2]; Example 2, 0.625 mg/ml local via pump for 2 weeks, sacrifice after 21 days): 1 (5×) and 0 and 2
Adhesion Area Percentage ([2]; Example 2, 0.625 mg/ml local via pump for 3 weeks (pump replaced at days 7 and 14), sacrifice after 21 days): 10% and 50% (3×) and 80% and 30% and 70%
Adhesion Tenacity ([2]; Example 2, 0.625 mg/ml local via pump for 3 weeks, sacrifice after 21 days): 1 (6×) and 2
Adhesion Area Percentage ([2]; Example 2, 6.25 mg/ml local via pump for 2 weeks (pump replaced at day 7), sacrifice after 21 days): 100% (4×) and 70% and 0% and 80% (2×)
Adhesion Tenacity ([2]; Example 2, 6.25 mg/ml local via pump for 2 weeks, sacrifice after 21 days): 1 (6×) and 0 and 2
Adhesion Area Percentage ([2]; Example 2, 6.25 mg/ml local via pump for 3 weeks (pump replaced at days 7 and 14), sacrifice after 21 days): 70% and 100% (4×) and 20% and 50%
Adhesion Tenacity ([2]; Example 2, 6.25 mg/ml local via pump for 3 weeks, sacrifice after 21 days): 1 (5×) and 2 (2×)
Adhesion Area Percentage ([2]; Example 2, 62.5 mg/ml local via pump for 2 weeks (pump replaced at day 7), sacrifice after 21 days): 40% and 80% and 100% (3×) and 30% and 60% and 70%
Adhesion Tenacity ([2]; Example 2, 62.5 mg/ml local via pump for 2 weeks, sacrifice after 21 days): 1 (6×) and 2 (2×)
Adhesion Area Percentage ([2]; Example 2, 62.5 mg/ml local via pump for 3 weeks (pump replaced at days 7 and 14), sacrifice after 21 days): 50% (2×) and 40% and 30% and 100% (2×) and 80%
Adhesion Tenacity ([2]; Example 2, 62.5 mg/ml local via pump for 3 weeks, sacrifice after 21 days): 1 (6×) and 2
mean adhesion area percentage ([2]; Example 3, 6.25 mg/ml local only, p=0.039): 72.9±11.7%
tenacity of the adhesions formed (analysis of variance on the ranks) ([2]; Example 3, all groups of animals that received the drug): significant reductions in the tenacity of the adhesions
area of adhesion formation ([2]; Example 3, all groups that received local delivery (Tables 13 and 16)): reductions in the area of adhesion formation
Adhesion Tenacity ([2]; Example 3, 6.25 mg/ml local via pump over 7 days, no oral dosing): 1
Adhesion Area Percentage ([2]; Example 3, 6.25 mg/ml local via pump, 10 microliter/hour over 7 days, no oral dosing): 100% (2×) and 60% and 80% (3×) and 10%
Adhesion Area Percentage [2, 9]: 80% (2×) and 0% and 50% and 60% and 10%
Adhesion Tenacity [2, 9]: 1 (5×) and 0
Adhesion Area Percentage ([2]; Example 3, oral 60 mg/kg 5 days pre-operatively and placebo topically (pump)): 100%
Adhesion Tenacity ([2]; Example 3, oral 60 mg/kg 5 days pre-operatively and placebo topically (pump), 60 mg/kg): 2 (4×) and 1 (2×)
Adhesion Area Percentage [2, 10]: 100%
Adhesion Tenacity [2, 10]: 2
area of adhesion formation / inhibition of adhesion formation ([2]; Example 3, oral dosing alone, pre-operatively or pre- and post-operatively (Tables 14 and 15)): did not reduce the area of adhesion formation; also recorded: no inhibition of adhesion formation
mean adhesion area percentage ([2]; Example 3, oral pre-operative and post-operative, no local): 100±0%
mean adhesion area percentage ([2]; Example 3, oral pre-operative with topical 6.25 mg/ml, p=0.002): 46.7±14.1%
mean adhesion area percentage ([2]; Example 3, oral pre-operative with topical placebo): 100±0%
inhibition of adhesion formation ([2]; Example 3, pre-operative oral administration in conjunction with local administration): did result in inhibition of adhesion formation
efficacy in reducing post-operative adhesions ([2]; delivered to the site via a local administrative route): efficacious
efficacy in reducing post-operative adhesions ([2]; delivered via a systemic route): no efficacy was seen
IC50 values in cellular assays [3]: does not exhibit potent IC50 values
